# From patent US10285936B2, “Injectable composition with aromatase inhibitor” (Laboratorios Farmacéuticos Rovi, S.A., priority 2010, dated 2019)
# Like-named read-outs stand apart in the source and are kept apart here.
# How the values were obtained:
# [1] = Letrozole particle size distribution by laser diffraction (Malvern Mastersizer 2000); type: physicochemical; settings: % volume; suspended in water until obscuration of 9.41%
# Protocol: If not otherwise specified, the particle size distribution was determined by light scattering technique using laser light diffraction in wet mode. It is known that particle size distribution results can be altered as a function of the material treatment such the use of high concentrate surfactant agents and/or strong force energies (vortex, sonication, etc). If nothing else is mentioned, drug is not treated and samples are prepared by direct addition to the tank under moderate stirring (2000-3500 rpm). The methodology applied on present invention to determine the drug particle size distribution mimics in a more faithfully way the behavior of the drug powder on the injectable formulation herein described than other methods which apply force energies to the sample and/or use high concentrate surfactant agents for preparing the samples in order to achieve high degrees of powder disaggregation that cannot be simulated during the manual reconstitution process of the formulation.
# Letrozole particle size in formulation 2 was characterized by the technique of laser ray diffraction (Malvern Mastersizer 2000, suspended in water until obscuration of 9.41%) and had the following distribution (in % volume): d(0.1)=38.21 μm, d(0.5)=141.35 μm and d(0.9)=312.13 μm.
# [2] = type: in vitro ADME; settings: for stability of samples at room temperature: 6 h; for storage of processed samples without change in precision and accuracy: 24 h; for long term stability of samples: 132 days
# Protocol: For quantification of letrozole in dog and rabbit plasma a technique based on high performance liquid chromatography with fluorescence detector HPLC-FLD […] using a liquid-liquid extraction with […] as the organic solvent and resuspension for analysis in reverse phase with isocratic elution. Carvedilol was used as the internal standard and the process time was 8.5 min with a letrozole retention time of 7.8 min and applying wavelengths of 240 nm (λ excitation) and 315 nm (λ emission). The validated concentration interval was from 5 (LLOQ) to 500 ng/mL, that is with a lower limit of quantification or minimum quantifiable analyte concentration of the analytical technique of 5 ng/mL and a maximum validated concentration of 500 ng/mL. Calibration curves obtained were characterized with a correlation coefficient of over 0.99. Precision and intra-assay and inter-assay accuracy was less than 20% for the LLOQ and less than 15% for the other QCs, that is, of the other known concentration samples used as quality controls in conducting the analysis. The bioanalytical method was validated over three days and the results met the acceptance criteria described in the FDA guide: “Bioanalytical Method Validation”.
# Processed samples could be stored in the sampler at 4° C. for 24 hours without noticing any change in the precision and accuracy of the analysis.
smiles,measurement,setting,value
"N#Cc1ccc(C(c2ccc(C#N)cc2)n2cncn2)cc1 [Letrozole, 4,4′-(1,2,4-triazol-1-ylmethyl)dibenzonitrile]",d(0.1),[1],38.21 μm
same,d(0.5),[1],141.35 μm
same,d(0.9),[1],312.13 μm
same,effect of cycles of freezing/thawing on stability,[2]; dog,did not affect the stability
same,stability of samples at room temperature,[2]; dog,up to 6 hours
same,storage of processed samples without change in precision and accuracy,[2]; dog,24 h
same,long term stability of samples,[2]; dog,132 days
same,effect of cycles of freezing/thawing on stability,[2]; rabbit,did not affect the stability
same,stability of samples at room temperature,[2]; rabbit,up to 6 hours
same,storage of processed samples without change in precision and accuracy,[2]; rabbit,24 h
same,long term stability of samples,[2]; rabbit,132 days
